Measurements: the NIST ThermoML archive (doi:10.1016/j.jct.2008.10.010)
± gives the expanded uncertainty stated by the source.

Assay: molar heat capacity at constant pressure; xn = mol fraction of the nth substance listed
Conditions: 101.3 kPa, Liquid, Small sample (50 mg) DSC

CCC(C)(C)O [2-methylbutan-2-ol] + CCCCCCC
Conditions | molar heat capacity at constant pressure [J/K/mol]
300.15 K, x1 = 0.7015 | 252.48 ± 3.9
300.15 K, x1 = 0.8023 | 251.41 ± 3.9
300.15 K, x1 = 0.9139 | 250.21 ± 3.9
300.15 K, x1 = 0.9609 | 249.66 ± 3.9
301.14 K, x1 = 0.0061 | 225.7 ± 3.5
301.14 K, x1 = 0.0494 | 236.34 ± 3.7
301.14 K, x1 = 0.1 | 242.42 ± 3.8
301.14 K, x1 = 0.1999 | 248.44 ± 3.9
301.14 K, x1 = 0.2993 | 251.7 ± 3.9
301.14 K, x1 = 0.4051 | 253.31 ± 3.9
301.14 K, x1 = 0.4986 | 253.99 ± 3.9
301.14 K, x1 = 0.5981 | 254.13 ± 3.9
301.14 K, x1 = 0.7015 | 253.67 ± 3.9
301.14 K, x1 = 0.8023 | 252.61 ± 3.9
301.14 K, x1 = 0.9139 | 251.4 ± 3.9
301.14 K, x1 = 0.9609 | 250.8 ± 3.9
301.16 K, x1 = 0.0249 | 230.74 ± 3.6
301.58 K, x1 = 0.1547 | 246.46 ± 3.8
302.14 K, x1 = 0.0061 | 226.13 ± 3.5
302.14 K, x1 = 0.0249 | 231.02 ± 3.6
302.14 K, x1 = 0.0494 | 236.64 ± 3.7
302.14 K, x1 = 0.1 | 243.03 ± 3.8
302.14 K, x1 = 0.1547 | 246.89 ± 3.8
302.14 K, x1 = 0.1999 | 249.24 ± 3.9
302.14 K, x1 = 0.2993 | 252.65 ± 3.9
302.14 K, x1 = 0.4051 | 254.36 ± 3.9
302.14 K, x1 = 0.4986 | 255.15 ± 4
302.14 K, x1 = 0.5981 | 255.29 ± 4
302.14 K, x1 = 0.7015 | 254.9 ± 4
302.14 K, x1 = 0.8023 | 253.83 ± 3.9
302.14 K, x1 = 0.9139 | 252.62 ± 3.9
302.14 K, x1 = 0.9609 | 251.98 ± 3.9
303.15 K, x1 = 0.0061 | 226.42 ± 3.5
303.15 K, x1 = 0.0249 | 231.23 ± 3.6
303.15 K, x1 = 0.0494 | 236.93 ± 3.7
303.15 K, x1 = 0.1 | 243.44 ± 3.8
303.15 K, x1 = 0.1547 | 247.5 ± 3.8
303.15 K, x1 = 0.1999 | 249.92 ± 3.9
303.15 K, x1 = 0.2993 | 253.53 ± 3.9
303.15 K, x1 = 0.4051 | 255.32 ± 4
303.15 K, x1 = 0.4986 | 256.2 ± 4
303.15 K, x1 = 0.5981 | 256.41 ± 4
303.15 K, x1 = 0.7015 | 256.05 ± 4
303.15 K, x1 = 0.8023 | 255 ± 4
303.15 K, x1 = 0.9139 | 254.11 ± 3.9
303.15 K, x1 = 0.9609 | 253.07 ± 3.9
304.14 K, x1 = 0.0061 | 226.83 ± 3.5
304.14 K, x1 = 0.0494 | 237.28 ± 3.7
304.14 K, x1 = 0.1 | 243.93 ± 3.8
304.14 K, x1 = 0.1547 | 248.12 ± 3.8
304.14 K, x1 = 0.1999 | 250.66 ± 3.9
304.14 K, x1 = 0.4986 | 257.22 ± 4
304.14 K, x1 = 0.8023 | 256.13 ± 4
304.14 K, x1 = 0.9139 | 254.91 ± 4
304.14 K, x1 = 0.9609 | 254.18 ± 3.9
304.16 K, x1 = 0.0249 | 231.5 ± 3.6
304.16 K, x1 = 0.2993 | 254.39 ± 3.9
304.16 K, x1 = 0.4051 | 256.27 ± 4
304.16 K, x1 = 0.5981 | 257.54 ± 4
304.16 K, x1 = 0.7015 | 257.2 ± 4
305.14 K, x1 = 0.0061 | 227.18 ± 3.5
305.14 K, x1 = 0.0249 | 231.73 ± 3.6
305.14 K, x1 = 0.0494 | 237.51 ± 3.7
305.14 K, x1 = 0.1 | 244.44 ± 3.8
305.14 K, x1 = 0.1547 | 248.76 ± 3.9
305.14 K, x1 = 0.1999 | 251.35 ± 3.9
305.14 K, x1 = 0.2993 | 255.22 ± 4
305.14 K, x1 = 0.4051 | 257.25 ± 4
305.14 K, x1 = 0.4986 | 258.3 ± 4
305.14 K, x1 = 0.5981 | 258.63 ± 4
305.14 K, x1 = 0.7015 | 258.36 ± 4
305.14 K, x1 = 0.8023 | 257.38 ± 4
305.14 K, x1 = 0.9139 | 256.1 ± 4
305.14 K, x1 = 0.9609 | 255.35 ± 4
306.15 K, x1 = 0.0061 | 227.53 ± 3.5
306.15 K, x1 = 0.0249 | 231.92 ± 3.6
306.15 K, x1 = 0.0494 | 237.81 ± 3.7
306.15 K, x1 = 0.1 | 244.85 ± 3.8
306.15 K, x1 = 0.1547 | 249.34 ± 3.9
306.15 K, x1 = 0.1999 | 252.03 ± 3.9
306.15 K, x1 = 0.2993 | 256.04 ± 4
306.15 K, x1 = 0.4051 | 258.23 ± 4
306.15 K, x1 = 0.4986 | 259.33 ± 4
306.15 K, x1 = 0.5981 | 259.69 ± 4
306.15 K, x1 = 0.7015 | 259.47 ± 4
306.15 K, x1 = 0.8023 | 258.63 ± 4
306.15 K, x1 = 0.9139 | 257.22 ± 4
306.15 K, x1 = 0.9609 | 256.43 ± 4
307.14 K, x1 = 0.0061 | 227.97 ± 3.5
307.16 K, x1 = 0.0249 | 232.13 ± 3.6
307.16 K, x1 = 0.0494 | 238.05 ± 3.7
307.16 K, x1 = 0.1 | 245.3 ± 3.8
307.16 K, x1 = 0.1547 | 249.89 ± 3.9
307.16 K, x1 = 0.1999 | 252.7 ± 3.9
307.16 K, x1 = 0.2993 | 256.85 ± 4
307.16 K, x1 = 0.4051 | 259.16 ± 4
307.16 K, x1 = 0.4986 | 260.39 ± 4
307.16 K, x1 = 0.5981 | 260.8 ± 4
307.16 K, x1 = 0.7015 | 260.58 ± 4
307.16 K, x1 = 0.8023 | 259.83 ± 4
307.16 K, x1 = 0.9139 | 258.36 ± 4
307.16 K, x1 = 0.9609 | 257.53 ± 4
308.14 K, x1 = 0.0061 | 228.36 ± 3.5
308.14 K, x1 = 0.0249 | 232.33 ± 3.6
308.14 K, x1 = 0.0494 | 238.3 ± 3.7
308.14 K, x1 = 0.1 | 245.7 ± 3.8
308.14 K, x1 = 0.2993 | 257.61 ± 4
308.14 K, x1 = 0.4051 | 260.05 ± 4
308.14 K, x1 = 0.4986 | 261.33 ± 4
308.14 K, x1 = 0.5981 | 261.79 ± 4.1
308.14 K, x1 = 0.7015 | 261.67 ± 4
308.14 K, x1 = 0.8023 | 260.9 ± 4
308.14 K, x1 = 0.9139 | 259.4 ± 4
308.14 K, x1 = 0.9609 | 258.61 ± 4
308.16 K, x1 = 0.1547 | 250.43 ± 3.9
308.16 K, x1 = 0.1999 | 253.31 ± 3.9
309.15 K, x1 = 0.0061 | 228.7 ± 3.5
309.15 K, x1 = 0.0249 | 232.53 ± 3.6
309.15 K, x1 = 0.0494 | 238.53 ± 3.7
309.15 K, x1 = 0.1 | 246.14 ± 3.8
309.15 K, x1 = 0.1547 | 250.99 ± 3.9
309.15 K, x1 = 0.1999 | 253.95 ± 3.9
309.15 K, x1 = 0.2993 | 258.43 ± 4
309.15 K, x1 = 0.4051 | 260.95 ± 4
